Data on one compound can be found in paper PMC11570809, “Novel N-phenyl-2-(aniline) benzamide hydrochloride salt development for colon cancer therapy” (Frontiers in Pharmacology, 2024).

Structures are written as SMILES. Entries after “also recorded” stand apart in the source; their conditions may differ. Structures can show the parent of a compound that is named as a salt. Bounds are passed on as bounds.

As usually defined, the LD50 is the dose expected to kill half of the subjects tested. Read a high LD50 as a less toxic substance. One may read the IC50 as the concentration that gives 50% inhibition.

The nature of data set [1]: Acute toxicity study (OECD guidelines), single dose by gavage. The data set is classed as in vivo. As to the method: Acute toxicity studies were conducted for N53·HCl following OECD guidelines. Sixteen Kunming mice were purchased from SPF (Beijing) Biotechnology Co., Ltd. The mice were randomly divided into two groups (n = 8, 4 female and 4 male mice per group). The control group was treated with saline containing 10% DMSO, 10% Solutol HS -15, and the experimental group was treated with N53·HCl at a dose of 1,000 mg/kg (suspended in saline containing 10% DMSO and 10% Solutol HS -15).
All treatments were administered with a single dose by gavage. […] It can be seen that N53·HCl is a safe agent with an oral LD50 of more than 1,000 mg/kg in mice.

For data set [2], the system named is PC-3. Kind of data set: MTT anti-proliferation assay, PC-3. The class given is cell-based. The conditions noted are these: Homo sapiens, PC-3, 72 h, read-out: IC50 ± SD PC-3. (In general: Tetrazolium dyes change colour on reduction, which living cells bring about.)
The test system of data set [3] is RKO cells. Kind of data set: Plane colony assay, RKO. The data set is classed as cell-based, human. The conditions noted are these: RKO, 1, 2 and 4 µM. As to the method:
In 6-well plates, HT29 cells and RKO cells (1 × 10^3 cells/well) were inoculated and maintained overnight. Then treated with N53 and N53·HCl at different concentrations for 24 h and with normal culture-medium for 7 days respectively. After that, removed supernatant and fixed by 4% paraformaldehyde for 15 min. Then fixed cells were stained with 1% crystal violet dye for 15 min and rinsed with water. Finally, colonies were counted according to rules that nonoverlapping groups of at least 50 cells. The data are all derived from three parallel experiments (n = 3) and expressed as mean ± SD.

The subject of data set [4] is HT29. Kind of data set: MTT anti-proliferation assay, HT29. The class given is cell-based, human. As to conditions: 72 h, read-out: IC50 ± SD HT29. As to the method:
The anti-proliferation activities of synthesized compounds to colon cancer cell lines were measured by the MTT (3-[4,5-dimethyl-2-thiazolyl]-2,5-diphenyl-2H-tet razolium bromide) assay. First, the cell suspension was prepared by trypsin and the corresponding medium, cells were diluted to 5 × 10^5 cells/mL, and 96-well plates were added 200 μL per well. The plates were maintained at 37°C in a humidified atmosphere containing 5% CO2 overnight. Then compounds at gradient concentrations were added to cells in the logarithmic phase to make the final concentration at 0.5, 1, 2, 4, 8, 16, and 32 μM. The cells were treated with tested compounds for 72 h, and the growth curve assay was tested in 24 h. When the time was up, 20 μL of MTT solution (5 mg/mL in PBS) was added into each well to incubate for 4 h at 37°C. Then the supernatant liquid was removed, 150 μL DMSO was added into every well to dissolve formazan crystals and read the absorbance at 570 nm by Spark microplate spectrophotometer (Tecan, Swiss). The IC50 values were analyzed by IBM SPASS Statistics 25.0 software. The data are all derived from three parallel experiments (n = 3) and expressed as mean ± SD.

With `Cc1c(Cl)cccc1Nc1ccccc1C(=O)Nc1ccc(N2CCN(C)CC2)cc1` [N53·HCl, 4-(4-(2-((3-chloro-2-methylphenyl)amino)ben-zamido)phenyl)-1-methylpiperazin-1-ium], in data set [1] (1,000 mg/kg single dose by gavage, after 14 days), the “Gross and histological (H&E) examination of major organs (heart, liver, kidney, spleen)” value was “no obvious toxic effects; also recorded: no significant abnormalities”. Also, the “Symptoms and body weight compared to vehicle-treated control” value in data set [1] (1,000 mg/kg single dose by gavage, monitored 14 days) is “no significant changes in symptoms and body weight”. In data set [1] (both sexes, Kunming, mouse, in vivo, po), this compound yielded an LD50 at 14 days of over 1000 mg/kg. In addition, the half-inhibitory concentration (IC50) in data set [2] amounted to 13.7 ± 0.8 µM; in data set [4], 2.95 ± 0.08 µM. The “Number of cell clones formed” value in data set [3] is “decreased significantly and dose-dependently”.
